Assay results taken from patent US9974825B2, “Peptides Des-[Asp1]-[Ala1], angiotensin-(1-7) agonist and pharmaceutical compositions for the treatment of diseases” (UNIVERSIDADE FEDERAL DE MINAS GERAIS, priority 2008, dated 2018).

How the values were obtained:
[1] = molecular target: T1, AT1 receptor (Homo sapiens, UniProt P30556); conditions: Jankowski et al. 2007; cited from earlier work
T1 sequence (P30556 1-359): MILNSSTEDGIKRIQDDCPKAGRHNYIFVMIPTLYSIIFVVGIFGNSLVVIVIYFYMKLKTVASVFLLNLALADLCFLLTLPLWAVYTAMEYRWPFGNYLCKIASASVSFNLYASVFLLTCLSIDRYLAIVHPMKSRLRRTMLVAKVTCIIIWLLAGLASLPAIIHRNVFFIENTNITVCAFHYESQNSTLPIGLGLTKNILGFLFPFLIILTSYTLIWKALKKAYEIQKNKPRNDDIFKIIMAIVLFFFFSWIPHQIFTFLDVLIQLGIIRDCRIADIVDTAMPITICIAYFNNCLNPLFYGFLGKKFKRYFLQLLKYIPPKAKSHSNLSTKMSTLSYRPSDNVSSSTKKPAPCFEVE

[2] = molecular target: T2, AT2 receptor (Homo sapiens, UniProt P50052); conditions: Jankowski et al. 2007; cited from earlier work
T2 sequence (P50052 1-363): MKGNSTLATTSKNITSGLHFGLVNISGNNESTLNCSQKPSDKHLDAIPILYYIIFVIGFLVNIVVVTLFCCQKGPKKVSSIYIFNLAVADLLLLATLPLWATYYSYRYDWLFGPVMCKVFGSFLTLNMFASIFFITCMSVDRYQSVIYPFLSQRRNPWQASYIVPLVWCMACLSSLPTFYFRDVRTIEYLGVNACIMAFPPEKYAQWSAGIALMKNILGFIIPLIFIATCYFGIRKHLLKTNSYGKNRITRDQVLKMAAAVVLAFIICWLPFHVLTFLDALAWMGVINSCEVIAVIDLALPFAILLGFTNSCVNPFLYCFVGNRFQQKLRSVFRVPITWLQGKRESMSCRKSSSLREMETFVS

[3] = system: wild-type mice; conditions: Jankowski et al. 2007; cited from earlier work
[4] = molecular target: Mas receptor; conditions: Dong et al., Cell 2001; read-out: EC50, affinity with Mas receptor; cited from earlier work
[5] = molecular target: T3, angiotensin converter enzyme (ACE) (Rattus norvegicus, UniProt P47820); assay: Plasmatic ACE activity, fluorimetric method with Hip-His-Leu substrate; format: biochemical, Wistar rats; conditions: 5 mM enalaprilate, assay specificity control
T3 construct: from tissue; host or cells: plasma of Wistar rats
T3 sequence (P47820 36-1238 limits assumed): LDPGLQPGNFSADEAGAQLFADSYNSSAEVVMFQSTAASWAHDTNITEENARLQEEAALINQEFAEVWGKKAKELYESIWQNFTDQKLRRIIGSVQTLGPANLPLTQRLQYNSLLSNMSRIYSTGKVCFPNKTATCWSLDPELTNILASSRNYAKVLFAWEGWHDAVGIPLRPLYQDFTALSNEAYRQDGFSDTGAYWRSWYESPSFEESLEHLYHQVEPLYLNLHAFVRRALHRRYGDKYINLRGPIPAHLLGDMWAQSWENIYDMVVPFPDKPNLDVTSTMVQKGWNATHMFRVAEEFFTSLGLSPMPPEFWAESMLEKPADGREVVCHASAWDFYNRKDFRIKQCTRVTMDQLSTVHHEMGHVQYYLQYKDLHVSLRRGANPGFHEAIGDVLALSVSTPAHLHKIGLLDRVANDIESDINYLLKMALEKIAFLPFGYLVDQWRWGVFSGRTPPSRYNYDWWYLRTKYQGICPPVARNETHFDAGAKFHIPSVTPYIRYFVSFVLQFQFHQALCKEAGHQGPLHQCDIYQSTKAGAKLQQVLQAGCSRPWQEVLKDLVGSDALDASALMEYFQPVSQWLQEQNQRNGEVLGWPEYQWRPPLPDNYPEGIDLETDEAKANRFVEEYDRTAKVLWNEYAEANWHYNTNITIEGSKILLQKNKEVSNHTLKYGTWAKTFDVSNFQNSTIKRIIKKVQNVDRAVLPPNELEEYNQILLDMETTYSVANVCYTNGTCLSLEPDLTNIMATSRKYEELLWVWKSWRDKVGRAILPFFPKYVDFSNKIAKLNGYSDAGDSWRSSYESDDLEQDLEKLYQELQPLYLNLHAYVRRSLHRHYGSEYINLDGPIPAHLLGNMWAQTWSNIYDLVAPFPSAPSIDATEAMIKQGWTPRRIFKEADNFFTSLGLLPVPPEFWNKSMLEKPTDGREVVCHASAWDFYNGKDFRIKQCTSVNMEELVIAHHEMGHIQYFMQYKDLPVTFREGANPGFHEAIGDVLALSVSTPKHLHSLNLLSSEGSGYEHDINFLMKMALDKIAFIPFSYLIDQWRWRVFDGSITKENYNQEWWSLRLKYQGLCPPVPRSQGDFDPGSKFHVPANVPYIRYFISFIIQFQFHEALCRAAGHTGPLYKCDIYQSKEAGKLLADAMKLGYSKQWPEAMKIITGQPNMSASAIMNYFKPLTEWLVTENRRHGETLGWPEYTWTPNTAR
Description: The plasmatic activity of ACE was measured by the fluorimetric method using Hip-His-Leu as substrate, as previously described (Santos, R. A. S. et al., Hypertension, 7:244-52, (1985)). Plasma aliquots (10 μL) of Wistar rats were incubated with a […] solution containing a 1 mM substrate (Hip-His-Leu) and 0.4 M of sodium borate, 0.9 M NaCl (pH=8.3) for 15 minutes at 37° C. The reaction was halted by adding 1.2 mL of NaOH at 0.34 M and […] of orthoftaldehyde (20 mg/mL in methanol). After 10 minutes at environment temperature, […] of HCl at 3 N was added. Later on, after a 5-minute 800×g centrifugation, the floating solution fluorescence was measured (a 365 nm excitation and a 495 nm emission). The blank was prepared by inverting the addition order of plasma and NaOH. A 0.5 to 20 nmol curve, containing the product (His-Leu) resulting of the substrate break (Hip-His-Leu) by ACE plasmatic activity, was prepared in each assay. In order to test the inhibition effect of ACE by the PEPTIDEs Ang-(1-7) and Ala^1-Ang-(1-7), 3.3×10^−7 or 3.3×10^−6 M of each PEPTIDE was added before the plasma addition. […] The percentage of enzymatic activity inhibition was estimated in function of the maximum activity obtained.

Ala^1-Arg^2-Val^3-Tyr^4-Ile^5-His^6-Pro^7-Phe^8 (ARVYIHPF; Angiotensin-2; UniProt P01019 25-32, looked up, variant D1A) [Ala^1-Ang II]
affinity with AT1 receptor compared with Ang II [1]: does not substantially differ from Ang II
affinity with AT2 receptor compared with Ang II [2]: does not substantially differ from Ang II
pressor activity compared with Ang II [3]: only a fraction of the Ang II activity

NPFF: one PEPTIDE called NPFF, which had shown affinity with the Mas receptor, though reasonably feeble
EC50 [4]: ~400 nM

C[C@H](N[C@@H](CCc1ccccc1)C(=O)O)C(=O)N1CCC[C@H]1C(=O)O [enalaprilate]
inhibition of the ACE activity [5]: 98%
